Reference: US20170240539A1, “Preparation and Use of Cyclic Sulfonamide Derivatives as PAR-1 Receptor Antagonists” (MERCK SHARP & DOHME CORP., priority 2014, published 2017)

Target: T1, PAR-1 receptor (Homo sapiens, UniProt P25116)
T1 construct: endogenous in cells; host or cells: HEK 293
T1 sequence (P25116 22-425): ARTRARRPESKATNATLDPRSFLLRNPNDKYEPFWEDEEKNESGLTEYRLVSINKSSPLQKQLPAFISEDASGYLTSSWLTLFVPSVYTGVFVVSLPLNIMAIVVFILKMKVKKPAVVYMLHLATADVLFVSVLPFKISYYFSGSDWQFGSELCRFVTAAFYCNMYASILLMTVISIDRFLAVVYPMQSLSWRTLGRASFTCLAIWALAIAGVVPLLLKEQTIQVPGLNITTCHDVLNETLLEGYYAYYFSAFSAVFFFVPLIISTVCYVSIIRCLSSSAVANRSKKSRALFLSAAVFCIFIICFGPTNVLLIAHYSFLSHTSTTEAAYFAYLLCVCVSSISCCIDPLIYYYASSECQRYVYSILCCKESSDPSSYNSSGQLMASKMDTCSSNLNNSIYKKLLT
Test: PAR-1 FLIPR Assay
Format: cell-based
Settings: HEK 293 cells, FLIPR calcium-5 dye; inhibition of signal from PAR1 selective receptor-activating peptide at 80% activation concentration (1.4-2.0 uM); compound incubated 30 minutes at 25 degrees
Procedure: The following assay was used to determine the ability of the inventive compounds to inhibit the PAR-1 receptor.
HEK 293 Cells are grown in media containing DMEM, 10% FBS pen/strep/L-Glutamine and non-essential amino acids. The cells are plated in 384-well PDL coated plates at 12000 cells/well and incubated overnight at 37° C./5% CO2. Media is then removed from the cells, which are then incubated with buffer (Hank's containing HEPES and Chaps) containing FLIPR calcium-5 dye, made with buffer containing probenecid, for 60 minutes at 37° C. Varying concentrations of compound in a final concentration of 5% DMSO are then added to the cells and incubated at 25 degrees for 30 minutes. The plates are then added to a FLIPR Tetra cellular screening system and the device adds a concentration of a PAR1 selective receptor-activating peptide with the sequence Ala-parafluoroPhe-Arg-Cha-Cit-Tyr-NH2 (SEQ ID NO: 3) (prepared in water) at a concentration equal to the effective concentration that achieves 80% activation of signaling on the day of the experiment. The range is from 1.4-2.0 uM peptide. The FLIPR reads at an excitation wavelength of 480 nm and an emission wavelength of 535 nm, and performs 60 scans over a 1-2 min reading time. The data are analyzed by taking the peak signal over a portion of the range of the 60 scans and dividing this signal by the minimum signal for that same range. The data are expressed as percent inhibition of the maximum divided by the minimum signal achieved at 80% activation produced by the PAR1 activating peptide on the test day.

| Structure (SMILES) | IC50 [nM] |
| --- | --- |
| COc1ncccc1-c1ccc(/C=C/[C@@H]2[C@H]3[C@@H](CC(F)(F)[C@H]2C)S(=O)(=O)N[C@@H]3C)nc1 [Example 1, (3R,3aR,4S,5S,7aR)-6,6-difluoro-4-((E)-2-(2′-methoxy-[3,3′-bipyridin]-6-yl)vinyl)-3,5-dimethyloctahydrobenzo[d]isothiazole 1,1-dioxide] | 5.1 |
| C[C@H]1NS(=O)(=O)[C@@H]2CC(F)(F)[C@@H](C)[C@H](/C=C/c3ccc(-c4cccnc4C#N)cn3)[C@@H]21 [Example 2, (3R,3aR,4S,5S,7aR)-6,6-difluoro-4-((E)-2-(2′-cyano-[3,3′-bipyridin]-6-yl)vinyl)-3,5-dimethyloctahydrobenzo[d]isothiazole 1,1-dioxide] | 55.8 |
| C[C@H]1NS(=O)(=O)[C@@H]2CC(F)(F)[C@@H](C)[C@H](/C=C/c3ccc(-c4ccccc4C#N)cn3)[C@@H]21 [Example 3, (3R,3aR,4S,5S,7aR)-4-((E)-2-(5-(2-cyanophenyl)pyridin-2-yl)vinyl)-6,6-difluoro-3,5-dimethyloctahydrobenzo[d]isothiazole-1,1-dioxide] | 11.9 |
| CC(=O)N1[C@H](C)[C@H]2[C@@H](/C=C/c3ccc(-c4ccccc4C#N)cn3)[C@H](C)C(F)(F)C[C@H]2S1(=O)=O [Example 4, 1-((3R,3aR,4S,5S,7aR)-6,6-difluoro-4-((E)-2-(5-(2-cyanophenyl)pyridin-2-yl)vinyl)-3,5-dimethyl-1,1-dioxidohexahydrobenzo[d]isothiazol-2(3H)-yl)ethanone] | 483 |
| C[C@H]1NS(=O)(=O)[C@@H]2CC(F)(F)[C@@H](C)[C@H](/C=C/c3ccc(-c4cccc(F)c4)cn3)[C@@H]21 [Example 5, (3R,3aR,4S,5S,7aR)-6,6-difluoro-4-((E)-2-(5-(3-fluorophenyl)pyridin-2-yl)vinyl)-3,5-dimethyloctahydrobenzo[d]isothiazole 1,1-dioxide] | 19 |
| Cc1nc(/C=C/[C@@H]2[C@H]3[C@@H](CC(F)(F)[C@H]2C)S(=O)(=O)N[C@@H]3C)ccc1-c1ccccc1C#N [Example 6, (3R,3aR,4S,5S,7aR)-4-((E)-2-(5-(2-cyanophenyl)pyridin-2-yl)-6-methylvinyl)-6,6-difluoro-3,5-dimethyloctahydrobenzo[d]isothiazole-1,1-dioxide] | 66.7 |
| Cc1nc(/C=C/[C@@H]2[C@H]3[C@@H](CC(F)(F)[C@H]2C)S(=O)(=O)N[C@@H]3C)ccc1-c1cccnc1C#N [Example 7] | 41 |
| C[C@@H]1[C@H](/C=C/c2ccc(-c3ccccc3C#N)cn2)[C@H]2[C@@H](CC1(F)F)S(=O)(=O)N[C@@H]2C [Example 8, (3R,3aR,4S,5R,7aR)-4-((E)-2-(5-(2-cyanophenyl)pyridin-2-yl)vinyl)-6,6-difluoro-3,5-dimethyloctahydrobenzo[d]isothiazole-1,1-dioxide] | 178 |
| CC(=O)N1[C@H](C)[C@H]2[C@@H](/C=C/c3ccc(-c4ccccc4C#N)cn3)[C@@H](C)C(F)(F)C[C@H]2S1(=O)=O [Example 9, 1-((3R,3aR,4S,5R,7aR)-6,6-difluoro-4-((E)-2-(5-(2-cyanophenyl)pyridin-2-yl)vinyl)-3,5-dimethyl-1,1-dioxidohexahydrobenzo[d]isothiazol-2(3H)-yl)ethanone] | 564 |
| CC[C@@H]1CC[C@@H]2[C@H]([C@H]1/C=C/c1ccc(-c3ccccc3C#N)cn1)[C@@H](C)NS2(=O)=O [Example 10, 2-(6-((E)-2-((3R,3aR,4R,5R,7aR)-5-ethyl-3-methyl-1,1-dioxidooctahydrobenzo[d]isothiazol-4-yl)vinyl)pyridin-3-yl)benzonitrile] | 0.97 |
| CC[C@@H]1CC[C@@H]2[C@H]([C@H]1/C=C/c1ccc(-c3ccccc3C#N)cn1)[C@@H](C)N(C(=O)OC(C)(C)C)S2(=O)=O [Example 11, (3R,3aR,4R,5R,7aR)-tert-butyl 4-((E)-2-(5-(2-cyanophenyl)pyridin-2-yl)vinyl)-5-ethyl-3-methylhexahydrobenzo[d]isothiazole-2(3H)-carboxylate1,1-dioxide] | 286 |
| COc1ncccc1-c1ccc(/C=C/[C@@H]2[C@@H]3[C@@H](C)NS(=O)(=O)[C@]3(C)CC(F)(F)[C@H]2C)nc1 [Example 12, (3R,3aR,4S,5S,7aR)-6,6-difluoro-4-((E)-2-(2′-methoxy-[3,3′-bipyridin]-6-yl)vinyl)-3,5,7a-trimethyloctahydrobenzo[d]isothiazole 1,1-dioxide] | 4.2 |
| COc1ncccc1-c1ccc(/C=C/[C@@H]2[C@@H]3[C@@H](C)N(C(=O)OC(C)(C)C)S(=O)(=O)[C@@H]3CC(F)(F)[C@H]2C)nc1 [Example 13, (3R,3aR,4S,5S,7aR)-tert-butyl 6,6-difluoro-4-((E)-2-(2′-methoxy-[3,3′-bipyridin]-6-yl)vinyl)-3,5-dimethylhexahydrobenzo[d]isothiazole-2(3H)-carboxylate 1,1-dioxide] | 278 |
| C[C@@H]1[C@H]2[C@@H](/C=C/c3ccc(-c4cccc(F)c4)cn3)[C@H](C)C(F)(F)C[C@H]2S(=O)(=O)N1C(=O)OC(C)(C)C [Example 14, (3R,3aR,4S,5S,7aR)-tert-butyl 6,6-difluoro-4-((E)-2-(5-(3-fluorophenyl)pyridin-2-yl)vinyl)-3,5-dimethylhexahydrobenzo[d]isothiazole-2(3H)-carboxylate 1,1-dioxide] | 383 |
| C[C@H]1NS(=O)(=O)[C@]2(C)CC(F)(F)[C@@H](C)[C@H](/C=C/c3ccc(-c4cccc(F)c4)cn3)[C@H]12 [Example 15, (3R,3aR,4S,5S,7aR)-6,6-difluoro-4-((E)-2-(5-(3-fluorophenyl)pyridin-2-yl)vinyl)-3,5,7a-trimethyloctahydrobenzo[d]isothiazole 1,1-dioxide] | 55.1 |
| C[C@H]1NS(=O)(=O)[C@]2(C)CC(F)(F)[C@@H](C)[C@H](/C=C/c3ccc(-c4ccccc4C#N)cn3)[C@H]12 [Example 16, (3R,3aR,4S,5S,7aR)-6,6-difluoro-4-((E)-2-(5-(2-cyanophenyl)pyridin-2-yl)vinyl)-3,5,7a-trimethyloctahydrobenzo[d]isothiazole 1,1-dioxide] | 11.8 |
| C[C@H]1NS(=O)(=O)[C@]2(C)CC(F)(F)[C@@H](C)[C@H](/C=C/c3ccc(-c4cccnc4C#N)cn3)[C@H]12 [Example 17, (3R,3aR,4S,5S,7aR)-6,6-difluoro-4-((E)-2-(2′-cyano-[3,3′-bipyridin]-6-yl)vinyl)-3,5,7a-trimethyloctahydrobenzo[d]isothiazole 1,1-dioxide] | 12 |
| COc1ncccc1-c1ccc(/C=C/[C@@H]2[C@@H]3[C@@H](C)NS(=O)(=O)[C@]3(CC(N)=O)CC(F)(F)[C@H]2C)nc1 [Example 18, 2-((3R,3aR,4S,5S,7aR)-6,6-difluoro-4-((E)-2-(2′-methoxy-[3,3′-bipyridin]-6-yl)vinyl)-3,5-dimethyl-1,1-dioxidooctahydrobenzo[d]isothiazol-7a-yl)acetamide] | 36.8 |
| COc1ncccc1-c1ccc(/C=C/[C@@H]2[C@@H]3[C@@H](C)N(C(=O)OC(C)(C)C)S(=O)(=O)[C@@]3(CC(N)=O)CC(F)(F)[C@H]2C)nc1 [Example 19, (3R,3aR,4S,5S,7aS)-tert-butyl 7a-(2-amino-2-oxoethyl)-6,6-difluoro-4-((E)-2-(2′-methoxy-[3,3′-bipyridin]-6-yl)vinyl)-3,5-dimethylhexahydrobenzo[d]isothiazole-2(3H)-carboxylate 1,1-dioxide] | 54 |
| C[C@H]1NS(=O)(=O)[C@]2(CC(N)=O)CC(F)(F)[C@@H](C)[C@H](/C=C/c3ccc(-c4cccc(F)c4)cn3)[C@H]12 [Example 20, 2-((3R,3aR,4S,5S,7aR)-6,6-difluoro-4-((E)-2-(5-(3-fluorophenyl)pyridin-2-yl)vinyl)-3,5-dimethyl-1,1-dioxidooctahydrobenzo[d]isothiazol-7a-yl)acetamide] | 5 |
| COc1ncccc1-c1ccc(/C=C/[C@@H]2[C@@H]3[C@@H](C)N(C(=O)OC(C)(C)C)S(=O)(=O)[C@]3(CC(N)=O)CC(F)(F)[C@H]2C)nc1 [Example 21] | 110 |
| COc1ncccc1-c1ccc(/C=C/[C@@H]2[C@@H]3[C@@H](C)NS(=O)(=O)[C@@]3(CC(N)=O)CC(F)(F)[C@H]2C)nc1 [Example 22, 2-((3R,3aR,4S,5S,7aS)-6,6-difluoro-4-((E)-2-(2′-methoxy-[3,3′-bipyridin]-6-yl)vinyl)-3,5-dimethyl-1,1-dioxidooctahydrobenzo[d]isothiazol-7a-yl)acetamide] | 337 |
